Experimental data reported in patent US8785457B2 (Cellzome Limited, priority 2009, dated 2014).
Like-named read-outs stand apart in the source and are kept apart here.

Tests used:
mTOR = target: T1, mTOR (Homo sapiens, UniProt P42345); assay: mTOR kinobeads assay (competitive binding in Jurkat cell lysate, immunodetection)
T1 construct: endogenous in cells; host or cells: Jurkat, clone E6-1 (ATCC TIB-152) cell lysate
How it was run: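 IC50 derived from dose-response curves of mTOR captured on immobilized phenylmorpholin-chromen beads, detected by antibody dot blot with infrared fluorescence.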

[1] = system: Akt serine-473 phosphorylation; assay: In vitro Phospho-Akt cellular assay (pAkt S473) in HEK293T/17 cells; assay type: cell-based; conditions: Homo sapiens, 2 hours
Source text: Activation of mTOR signaling results in phosphorylation of several downstream targets. In cells, mTOR exists in two different protein complexes. The mTOR Complex-1 (mTORC1) phosphorylates and activates S6 Kinase 1 (S6K1) and S6 Kinase 2 (S6K2) (also known as p70S6K) which then phosphorylate S6 Ribosomal Protein (S6RP) (also known as RPS6)3. S6RP is phosphorylated on serine 235, serine 236, serine 240 and serine 244 by both pS6K1 and pS6K2. The mTOR Complex-2 (mTORC2) phosphorylates AKT on serine 473 which activates the AKT signaling pathway.
The assay measures a test compound's inhibition of S6RP serine-240/244 phosphorylation and inhibition of Akt serine-473 phosphorylation in human embryonic kidney derived HEK293T/17 cells (ATCC CRL-11268).
The HEK293T/17 cell line is maintained in DMEM media (Invitrogen catalogue number 41965-039) supplemented with 10% FCS at 37° C. in a 5% CO2 humidified incubator.
Cells are seeded in 96-well plates at 40,000 cells/well (pS6RP S240/244 assay) or 80,000 cells/well (pAkt S473 assay) in 90 μl growth media (DMEM, 2% FCS). Plates are incubated for 1 hour in a humidified incubator to allow the cells to adhere. Cells are treated with 8 concentrations of test compounds or DMSO alone for controls (final DMSO concentration 0.1%) and incubated at 37° C. for 2 hours. Then 20 μl of 5× concentrated lysis buffer (750 mM NaCl, 100 mM Tris pH7.4, 5 mM ADTA, 5 mM EGTA, 5% Triton X-100) is added, plates are sealed and incubated for 15 minutes at 4° C. with gentle shaking. After cell lysis, 25 μl cell lysate is transferred to a MesoScale plate coated with an antibody to pS6RP Ser240/244 (MesoScale Discovery K150DGD-3) or an antibody to pAkt Ser 473 (MesoScale Discovery K151DGD-3). Plates have been blocked before by incubation with 150 μl MesoScale Discovery Blocking Solution-A for 1 hour at room temperature followed by washing with 150 μl 1× Tris wash buffer per well. After the transfer of the cell lysate to the MSD plate, the pS6RP (or pAkt) protein is captured on the coated antibody by incubation at room temperature for 1 hour with gentle shaking. After the capture step the plate is washed three times with 150 μl of 1× Tris wash buffer per well. Then 25 μl detection antibody conjugated with a Sulfo-Tag is added and incubated for 1 hour at room temperature with gentle shaking. Subsequently the antibody solution is removed and the plate is washed 3 times with 150 μl×Tris wash buffer per well and 150 μl Read buffer is added. The plates are analysed on a MSD 2400 Plate Reader (MesoScale Discovery). Data analysis is performed using nonlinear regression for a sigmoidal dose-response with a variable slope.

[2] = Further Kinobeads Data, read-out: mTor

SMILES | IC50 (mTOR; [2]) | IC50 [1] | IC50 (mTOR; kinobeads assay, Table 4, read-out: Inhibition values (IC50) mTor) | IC50 (mTOR; kinobeads assay, Table 6, read-out: Inhibition values (IC50) mTOR)
CCNC(=O)Nc1ccc(-c2nc3c(c(N4CCOCC4)n2)CN(C(=O)OC)C3)c(F)c1 [Example 162, methyl 2-(4-(3-ethylureido)-2-fluorophenyl)-4-morpholino-5H-pyrrolo[3,4-d]pyrimidine-6(7H)-carboxylate] | < 0.1 µM | 0.085 µM |  | 
CN1Cc2nc(-c3ccc(NC(=O)NC4CC4)cc3F)nc(N3CCOCC3)c2C1 [Example 159, 1-(Cyclopropyl)-3-(3-fluoro-4-(6-methyl-4-morpholino-6,7-dihydro-5H-pyrrolo[3,4-d]pyrimidin-2-yl)phenyl)urea] | 0.1 to 1 µM | 0.314 µM |  | 
CCNC(=O)Nc1ccc(-c2nc3c(c(N4CCOC[C@@H]4C)n2)CCN(C)C3)cc1 [Example 35, (S)-1-ethyl-3-(4-(7-methyl-4-(3-methylmorpholino)-5,6,7,8-tetrahydropyrido[3,4-d]pyrimidin-2-yl)phenyl)urea] |  | 0.014 µM | < 0.1 µM | < 0.1 µM
CCOC(=O)N1Cc2nc(-c3ccc(NC(=O)NCCF)cc3F)nc(N3CCOCC3)c2C1 [Example 170, ethyl 2-(2-fluoro-4-(3-(2-fluoroethyl)ureido)phenyl)-4-morpholino-5H-pyrrolo[3,4-d]pyrimidine-6(7H)-carboxylate] | < 0.1 µM | 0.054 µM |  | 

More lines, now with the values ahead:

IC50 (mTOR; [2]) | IC50 [1] | IC50 (mTOR; kinobeads assay, Table 4, read-out: Inhibition values (IC50) mTor) | IC50 (mTOR; kinobeads assay, Table 6, read-out: Inhibition values (IC50) mTOR) | SMILES
0.1 to 1 µM | 0.052 µM |  |  | C[C@H]1COCCN1c1nc(-c2ccc(NC(=O)NC3CC3)cc2F)nc2c1CN(C(=O)N(C)C)C2 [Example 178, (S)-2-(4-(3-cyclopropylureido)-2-fluorophenyl)-N,N-dimethyl-4-(3-methylmorpholino)-5H-pyrrolo[3,4-d]pyrimidine-6(7H)-carboxamide]
< 0.1 µM | 0.049 µM |  |  | COC(=O)N1Cc2nc(-c3ccc(NC(=O)NC4CC4)cc3F)nc(N3CCOCC3)c2C1 [Example 173, Methyl 2-(4-(3-cyclopropylureido)-2-fluorophenyl)-4-morpholino-5H-pyrrolo[3,4-d]pyrimidine-6(7H)-carboxylate]
